Square brackets hold non-standard residues; d marks the D form. Ends that are not written are not given here. Peptide text beside a SMILES is read from it.
Experiments:
#311 plaque biofilm [1] = details: Fig 2B, cited from earlier work
Protocol: MICs of D-GL13K against cultures of all 10 plaque biofilm samples were in the range 1–4 μg/ml (Fig 2A). […] Potency of the rest of AAMPs candidates was tested against cultures of the highly adherent #311 sample. […] However, biofilms show increased resistance to antimicrobial agents than suspension cultures.

#311 plaque biofilm [2] = experiment: Live/dead viability assay of plaque biofilms on peptide-coated HA discs; type: cell-based, plaque bacteria (human subject)
Protocol: Hydroxyapatite (HA) discs (9.65 mm diameter by 1.52 mm thickness; Clarkson Chromatography Products, Williamsport, PA, USA) were sterilized by autoclaving to be used as plaque biofilm substrates. Both sides of each disc were etched by 32% phosphoric acid gel (Scotchbond™ Universal Etchant, 3M, St. Paul, MN, USA) for 15 s followed by 10 s water-rinse and 10 s air-dry. The discs were coated, incubated with a thin layer of peptide solution at 37 °C for 1 min, by 1 mg/ml of either D-GL13K or 1018 or DJK2 followed by 60 s air-dry. The control discs were etched, but were not coated with peptides. All samples were subject to ultrasonication in water bath for 15 min to remove any unattached peptides. X-ray Photoelectron Spectroscopy (XPS; SSX-100, Surface Science Laboratories; Al Kα X-ray, 1 mm spot-size, 35° take-off angle) was used to detect the atomic composition of the coated surfaces. […]
Working solution of fluorescent stains (L7012, LIVE/DEAD BacLight Bacterial Viability Kit, ThermoFisher Scientific, Waltham, MA, USA) was prepared by adding 3 μl of SYTO® 9 (live cell stain) and 3 μl of Propidium iodide (PI, dead cell stain) to 1 ml of sterilized Milli-Q® ultrapure water. […] The regrown biofilms were re-assessed using the same Live/Dead assay.

[3] = system: plaque biofilm microbial community; experiment: 16S rRNA gene sequencing of plaque biofilm community on AAMPs-coated HA discs; type: cell-based, plaque bacteria (human subject)
Protocol: PMA treatment was conducted for selective detection of viable bacteria. Prior to DNA extraction, the collected 1ml of bacterial cells was sub-divided into 0.5ml with PMA and the other 0.5ml without PMA treatment for each sample for fulfilling a pairs-matched statistical design (S1 Fig in S1 File). PMA was added to the assigned samples for a final concentration of 50 μM. The samples were incubated in the dark for 10 minutes on a shaker at room temperature. The samples were exposed to a PMA-Lite LED photolysis device light (Biotium, Fremont, CA, USA) to cross-link PMA to DNA for 15 minutes. Cells were pelleted by centrifuging at 5000x g for 10 minutes in preparation for genomic DNA extraction.
Genomic DNA was extracted from all samples; i.e., PMA and non-PMA treated bacteria. The protocol amended from Epicentre MasterPure™ DNA Purification Kit and Epicentre MasterPure™ Gram Positive DNA Purification Kit was followed (http://homings.forsyth.org/DNA%20Isolation%20Protocol.pdf, last access 03/31/2020).
The extracted DNA was submitted to the University of Minnesota Genomics Center for dual-indexed 16S rRNA gene amplicon sequencing using the V3-V4 region on the Illumina MiSeq platform 300PE.
Primers where removed with FilterandTrim, paired reads were merged with mergePairs, Bimeras where removed in with removeBimeraDenovo, and Silva version 132 was used for taxonomy identification. Sequences with a length < 251 and > 255 were removed as well as sequences with a total read count across all samples equal to 1. Further analysis of the ASV table was performed in R with the vegan, reshape2, ggplot2, grid, gridExtra, plyr, dplyr packages. The alpha diversity indices of Shannon, Simpson, Inverse Simpson (InvSympson) were calculated at 97% identity. Beta diversity analysis was performed by principal coordinates analysis (PCoA) based on Bray-Curtis distances at the Operational Taxonomic Unit (OTU) level. […]

[4] = system: supragingival dental plaque samples from 10 high caries risk subjects; type: cell-based, plaque bacteria (human subjects); details: 24 h
Source text: After a written informed consent was obtained from all participants, supragingival dental plaque samples from 10 high caries risk subjects were collected from either the occlusal or buccal margin of existing restorations at the University of Minnesota (Institutional Review Board #1403M48865). Each subject was examined for a formal caries risk assessment (CAMBRA) which classifies the caries risk status into 3 categories (low, moderate, high) considering a wide-range of biological predisposing factors and the protective factors, 8 factors each, in addition to the comprehensive clinical examination. All subjects had experienced active carious lesions and were still at high risk for future caries; otherwise, they were in good general health and had not taken antibiotics within 3 months of plaque sampling.
All dental plaque samples were collected using a sterile sickle scaler, and each sample was immediately deposited into a vial containing 1 ml pre-reduced anaerobic transfer medium (Anaerobe Systems, Morgan Hill, CA, USA). […] After 24 h of peptide treatment, absorbance at 600 nm was measured using a microtiter plate reader (Bio-Tek Instruments, Winooski, VT, USA). Plaque sample #311 was challenging in the planktonic state and, additionally, it formed the highest adherent biofilm using the Crystal Violet assay as measured by Dr. Robert S. Jones lab (data not shown). […]

[5] = system: plaque biofilm along dentin-composite interface; experiment: Multiphoton live/dead bioimaging of plaque biofilm along dentin-composite interfacial gap; type: cell-based, plaque bacteria (human subject); bovine dentin; details: D-GL13K-coated dentin
Source text: Roots of bovine teeth were used to prepare restored dentin-composite discs (Fig 1). After the crowns and apical thirds of each tooth were cut off, the root canals were enlarged to 2 mm in diameter, using 1.9-mm diameter fiber post drills (RelyX™ Fiber Post, 3M, St. Paul, MN, USA). The outer surface of the roots was trimmed down to 5 mm in diameter using a lathe to remove cementum and external layers of dentin. The obtained dentin tubes (5 mm in outer diameter and 2 mm in inner diameter) were water rinsed and stored in 0.5 chloramine T solution at 4 °C until the restorative procedures were performed. […]
Multiphoton images were acquired in a Multiphoton upright microscope equipped with an A1R laser scan head (Nikon FN1, Tokyo, Japan). […] Multiphoton excitation fluorescence was collected in the epi direction in the green (470–550) and orange-red (570–640) channels. […] Images were compiled and analyzed with NIS Elements software (Version 4.11.0, Nikon, Tokyo, Japan).
Quantification of red and green cells was done by standard co-localization analysis using Fiji image processing package. The percentage of red cells, which is usually associated to dead cells was calculated as: deadcells%=(totalvolumeofredcells/totalvolumeofcells)x100

#311 plaque sample = details: cultures of highly adherent #311 plaque sample; several batches; n = 3; Fig 2C; cited from earlier work
Protocol: MICs of D-GL13K against cultures of all 10 plaque biofilm samples were in the range 1–4 μg/ml (Fig 2A). […] Potency of the rest of AAMPs candidates was tested against cultures of the highly adherent #311 sample. […] The controls, scrambled amino acid versions of D- ...

Molecule | inhibition of #311 plaque biofilm (#311 plaque biofilm [1]; 25 μg/ml D-GL13K, 6-day-old biofilm) | suppression of biofilm biovolume compared to controls (#311 plaque biofilm [1]; highly adherent plaque biofilm) [%] | live/dead assay, effect on bacteria (#311 plaque biofilm [2]; D-GL13K-coated HA discs, 48 h biofilm growth) | antibiofilm activity of challenged coatings (#311 plaque biofilm [2]; coating challenged by 45 min ultrasonication or 45 min 30% acetic acid (pH 2.4), biofilms regrown 5 and 15 days) | bacterial community richness (Shannon index) compared to controls ([3]; 48-h biofilm on coated HA discs, genus level) | abundance of less abundant taxa Actinomyces and Gemella compared to controls ([3]; ANCOM, coated HA discs) | number and relative abundance of Streptococcus and Veillonella combined versus controls ([3]; Shannon, Simpson, InvSimpson indices, coated HA discs) | MIC [4] [µg/mL] | antibiofilm potency on 18-day-old interfacial plaque biofilm ([5]; 18-day-old biofilm, 3D rendering) | Percentage of dead cells ([5]; interfacial 9-day-old biofilm, average ± SD, n=6, control 31.5%± 8%, p = 0.018) | MIC (#311 plaque sample) [µg/mL]
CC[C@@H](C)[C@@H](NC(=O)[C@@H](CCCCN)NC(=O)CN)C(=O)N[C@@H](C(=O)N[C@H](CCCCN)C(=O)N[C@H](CC(C)C)C(=O)N[C@H](CCCCN)C(=O)N[C@H](C)C(=O)N[C@H](CO)C(=O)N[C@H](CC(C)C)C(=O)N[C@H](CCCCN)C(=O)N[C@H](CC(C)C)C(=O)N[C@H](CC(C)C)C(N)=O)[C@H](C)CC [D-GL13K] (H-G[dK][dI][dI][dK][dL][dK][dA][dS][dL][dK][dL][dL]-NH2; N-terminus and C-terminus assumed) | around 4 fold | > 70 | uniform and marked loss of the integrity of bacterial membranes | sustained antibiofilm activity | significantly reduced | significant reduction | significant reduction | 1 to 4 | maintained their antibiofilm potency | 60% ± 10% | 1 to 2
L-GL13K: antimicrobial amphipathic peptide GL13K, L-amino acids (GKIIKLKASLKLL; not fully specified (C-terminus)) |  |  |  |  |  |  |  |  |  |  | 8
